Assays:
[1] = 101.33 kPa, Liquid, vibrating tube
[2] = xn = mol fraction of the nth substance listed; details: 101.33 kPa, Liquid, vibrating tube

CC(C)=O [acetone]
[1]
Details	mass density [kg/m3]
283.15 K	801.669
288.15 K	796.037
293.15 K	790.355
298.15 K	784.638
303.14 K	778.876
308.15 K	773.065
313.14 K	767.205
318.14 K	761.288
323.14 K	755.314

CC(C)=O [acetone] + CCC(=O)O
[2], x1 = 1
Details	mass density [kg/m3]
283.15 K	801.669
288.15 K	796.037
293.15 K	790.355
298.15 K	784.638
303.14 K	778.876
308.15 K	773.065
313.14 K	767.205
318.14 K	761.288
323.14 K	755.314

CCC(=O)O [propanoic acid]
[1]
Details	mass density [kg/m3]
283.15 K	1004.11
288.15 K	998.688
293.15 K	993.261
298.15 K	987.847
303.14 K	982.44
308.15 K	977.037
313.14 K	971.635
318.14 K	966.24
323.15 K	960.843

O [water]
[1]
Details	mass density [kg/m3]
283.15 K	999.691
318.14 K	990.13
323.14 K	988.003

O [water] + CC(C)=O
[2], x2 = 0
Details	mass density [kg/m3]
283.15 K	999.691
318.14 K	990.13
323.14 K	988.003

O [water] + CCC(=O)O
[2], x2 = 0
Details	mass density [kg/m3]
283.15 K	999.691
318.14 K	990.13
323.14 K	988.003

From the NIST ThermoML archive (doi:10.1021/je030102f)
